In patent US20250057911A1, “OVARY-TARGETING POLYPEPTIDE, AND DERIVATIVE AND THE USE THEREOF” (SHENZHEN INSTITUTES OF ADVANCEDTECHNOLOGY CHINESE ACADEMY …, priority 2022, published 2025):
Ends that are not written are not given here.

Tests used:
ovary [1] = assay: Mouse ovary-targeting capacity of polypeptide ICG probe (small animal imaging); format: in vivo; conditions: adult mice, tail vein injection 100 μL/mouse, imaged after 24 h; FIG. 1
Description: A solution of the polypeptide ICG probe (containing SEQ ID NO: 1) prepared in Example 2, an ICG solution (2 mM), and PBS were injected intravenously into the tail of the adult mice at 100 μL/mouse. After 24 h, the mice were detected under an imager for small animals.

mouse ovary = assay: Localization of polypeptide targeting in mouse ovary (cryosection, laser confocal microscope); format: in vivo; conditions: ovaries from Example 4, 10 μm cryosections, DAPI; FIG. 3
Source text: To further confirm the localization for the targeting of the polypeptide to the ovary, the four groups of mouse ovaries from Example 4 were fixed with 4% PFA, then cryosectioned (10 μm), stained for cell nuclei (DAPI), and observed for fluorescence localization under a laser confocal microscope.

ovary [2] = assay: Mouse ovary-targeting capacity of polypeptide AIE probe (small animal imaging); format: in vivo; conditions: adult mice, tail vein injection 100 μL/mouse, imaged after 24 h; FIG. 2
Description: The polypeptide AIE probe (containing SEQ ID NO: 1) prepared in Example 2, a scrambled polypeptide AIE probe, an AIE empty particle, and PBS were injected intravenously into the tail of the adult mice at 100 μL/mouse. After 24 h, the mice were detected under an imager for small animals.

DHT model mice liver = assay: Hyperandrogen-induced mouse liver lipid droplet accumulation (HE staining); format: in vivo; conditions: DHT+OCN15 treated group vs DHT model mice; FIG. 9
Description: (§1) Wild type female mice at postnatal day 25 (D25) were randomly grouped into a control group (CTRL), a DHT group, and a DHT+OCN15 ([…] is the polypeptide set forth in SEQ ID NO: 1) group, with at least 8 mice in each group. The control group was implanted subcutaneously with an empty pump and gavaged with 200 μL of normal saline every day; the DHT group was implanted subcutaneously with a slow-release pump containing 5 mg of dihydrotestosterone (DHT) powder and gavaged with 200 μL of normal saline every day; and the DHT+OCN15 group was implanted subcutaneously with a slow-release pump containing 5 mg of DHT powder and gavaged with 200 μl of normal saline containing the polypeptide (500 μg/Kg) every day. The modeling time was 60 days.
The method for the induction of the mouse PCOS model by hyperandrogen DHT is described in Example 6. After modeling, the mouse liver was taken, fixed overnight by 4% paraformaldehyde (PFA), dehydrated by alcohol gradient, embedded by paraffin, sectioned (5 μm), and subjected to HE staining for morphological observation.

oocytes = assay: Oocyte post-ovulation aging model (in vitro aging in M16 medium); format: cell-based, mouse
Description: Wild type female mice were intraperitoneally injected with 5 IU PMSG (pregnant mare serum gonadotropin), followed by an intraperitoneal injection of 5 IU hCG (human chorionic gonadotropin) 48 h later for superovulation. Oocytes were collected after 14 h, and cumulus cells were removed using hyaluronidase. Then, the oocytes were randomly divided into the Aging group and the Aging+OCN15 group and cultured in M16 medium for aging. The Control group was aged for 0 h, the Aging group for 12 h, and the Aging+OCN15 group in M16 containing the polypeptide (1 μg/mL) for 12 h.

[3] = test system: DHT-induced hyperandrogenic female mice; assay: Hyperandrogen dihydrotestosterone (DHT)-induced mouse model, reproductive and metabolic symptoms; format: in vivo
Description: as §1

CC1(C)C(/C=C/C=C/C=C/C=C2\N(CCCCS(=O)(=O)[O-])c3ccc4ccccc4c3C2(C)C)=[N+](CCCCS(=O)(=O)[O-])c2ccc3ccccc3c21.[Na+] [ICG, reference compound]
fluorescent signal at the ovarian site (ovary [1]): do not show a fluorescent signal at the ovarian site

OCN15-AIE: AIE probe containing SEQ ID NO: 1, polypeptide linked to AIE by click chemistry (DBCO linker) (YLGASVPSPDPLEPT; also: AIE probe attached via DBCO click linker, site not given here)
fluorescence localization in the ovary (mouse ovary): mainly targets the interstitial cell and the membrane cell in the mouse ovary | fluorescent signal at the ovarian site (ovary [2]): has a specific signal at the ovarian site

OCN15-ICG: ICG probe containing SEQ ID NO: 1, polypeptide linked to ICG by click chemistry (DBCO linker) (YLGASVPSPDPLEPT; also: ICG dye attached via DBCO click linker, site not given here)
fluorescent signal at the ovarian site (ovary [1]): has a specific signal at the ovarian site

YLGASVPSPDPLEPT [OCN15, mouse metabolite, ovary-targeting polypeptide]
liver lipid droplet accumulation (DHT model mice liver): alleviated | oocyte fragmentation and degeneration (oocytes; 1 μg/mL polypeptide in M16, 12 h aging, FIG. 7A): ameliorate the fragmentation and degeneration caused by in vitro aging of oocytes | zona pellucida sclerosis (oocytes; 1 μg/mL polypeptide in M16, 12 h aging, FIG. 7B): ameliorate the zona pellucida sclerosis caused by in vitro aging of oocytes | in vitro fertilization rate (oocytes; 1 μg/mL polypeptide in M16, 12 h in vitro aging, FIG. 7C): improve the low fertilization rate caused by in vitro aging of oocytes | anogenital distance ([3]; 500 μg/Kg gavage daily with DHT pump, 60 days after modeling, FIG. 4C): significantly improved | number of estrous days in ten days ([3]; 500 μg/Kg gavage daily with DHT pump, 60 days modeling, normal above 4 days, hyperandrogenic around 2 days, FIG. 4B): ~3 days | ovarian polycystic changes ([3]; 500 μg/Kg gavage daily with DHT pump, 60 days, FIG. 4A): reduce the polycystic changes | body weight ([3]; 500 μg/Kg gavage daily with DHT pump, FIG. 5A): alleviate the increase in body weight | body weight gain ([3]; 500 μg/Kg gavage daily with DHT pump, FIG. 5B): alleviate the increase in body weight and body weight gain caused by DHT to some extent | weight of gonadal fat ([3]; 500 μg/Kg gavage daily with DHT pump, FIG. 5C): reducing the weight of mouse gonadal fat | lean body mass ([3]; 500 μg/Kg gavage daily with DHT pump, FIG. 5D): increased lean body mass | blood glucose level after oral administration of glucose ([3]; at 30 min after oral glucose, 60 days after modeling, FIG. 4D): significant decrease in blood glucose level compared with the group with DHT alone | androgen receptor AR expression in the epidermal layer of the neck and back skin ([3]; day 60 of modeling, immunofluorescence, FIG. 6B): significantly reduce DHT-caused significant increase of androgen receptor AR expression | hair loss on the neck and back skin ([3]; day 60 of modeling, FIG. 6A): can significantly improve the phenomenon
